Data taken from patent publication US20050245533A1, “Inhibitors of the 11-beta-hydroxysteroid dehydrogenaseType 1 enzyme and their therapeutic application” (priority 2004, published 2005).

Columns and labels:
[1] = target: T1, truncated human 11β-HSD-1 enzyme (24-287AA) (Homo sapiens, UniProt P28845); experiment: human 11β-HSD-1 enzymatic Scintillation Proximity Assay (SPA); assay type: biochemical
T1 construct: truncated human 11β-HSD-1 enzyme (24-287AA); made in house; host or cells: E. coli (lysate)
Method: The ability of test compounds to inhibit human 11-βHSD-1 enzymatic activity in vitro was evaluated in a Scintillation Proximity Assay (SPA). Tritiated-cortisone substrate, NADPH cofactor and titrated compound were incubated with truncated human 11β-HSD-1 enzyme (24-287AA) at room temperature to allow the conversion to cortisol to occur. The reaction was stopped by adding a non-specific 11β-HSD inhibitor, 18β-glycyrrhetinic acid. The tritiated cortisol generated was then captured by a mixture of an anti-cortisol monoclonal antibody and SPA beads coated with anti-mouse antibodies. The reaction plate was shaken at room temperature and the radioactivity bound to SPA beads was then measured on a β-scintillation counter. The 11-βHSD-1 assay was carried out in 96-well microtiter plates in a total volume of 220 μl. To start the assay, 188 μl of master mix which contains 17.5 nM ^3H-cortisone, 157.5 nM cortisone, and […] NADPH was added to the wells. In order to drive the reaction in the forward direction, 1 mM G-6-P was also added. […] After shaking for 30 minutes, plates were read on a liquid scintillation counter Topcount. Percent inhibition was calculated based on the background and the maximal signal. […] Percent of inhibition of each compound was calculated relative to the maximal signal and IC50 curves were generated. […]

ob/ob mice = experiment: ob/ob mouse model of type 2 diabetes; assay type: in vivo; conditions: three weeks
Method: Male B6.VLep^ob(−/−) (ob/ob) mice and their lean littermates (Jackson Laboratory, Bar Harbor, Me.) were group housed and allowed free access to food (Purina 5015) and water. Mice were 6-7 weeks old at the start of each study. On day 0, animals were weighed and postprandial glucose levels determined (Medisense Precision-X™ glucometer, Abbott Laboratories). […] Animals were weighed, and postprandial glucose measurements were taken weekly throughout the study. On the last day of the study, 16 hours post dose (unless otherwise noted) the mice were euthanized via CO2, and blood samples (EDTA) were taken by cardiac puncture and immediately placed on ice. Whole blood measurements for HbA1c were taken with hand held meters (A1c NOW, Metrika Inc., Sunnyvale Calif.). Blood samples were then spun and plasma was removed and frozen until further analysis. The plasma triglyceride levels were determined according to instructions by the manufacturer (Infinity kit, Sigma Diagnostics, St. Louis Mo.).

human 11-β-HSD-2 = target: T2, human 11-β-HSD-2 (Homo sapiens, UniProt P80365); experiment: 11β-HSD-2 Scintillation Proximity Assay (tritiated cortisol, NAD+); assay type: biochemical; conditions: human enzyme, SPA
T2 sequence (P80365 1-405): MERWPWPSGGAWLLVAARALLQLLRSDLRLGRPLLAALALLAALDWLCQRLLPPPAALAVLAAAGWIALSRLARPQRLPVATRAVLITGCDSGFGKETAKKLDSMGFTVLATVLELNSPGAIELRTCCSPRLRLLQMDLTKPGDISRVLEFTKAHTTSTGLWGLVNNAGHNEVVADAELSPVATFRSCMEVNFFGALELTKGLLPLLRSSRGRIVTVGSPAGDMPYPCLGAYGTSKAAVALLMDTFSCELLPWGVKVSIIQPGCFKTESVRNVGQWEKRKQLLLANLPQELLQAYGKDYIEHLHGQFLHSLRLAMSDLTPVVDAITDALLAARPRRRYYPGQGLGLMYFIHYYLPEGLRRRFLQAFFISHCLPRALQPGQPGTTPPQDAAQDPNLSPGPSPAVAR

male CD-1 mice = experiment: Mouse dehydrocorticosterone challenge model; assay type: in vivo; conditions: 100 mpk, followed by 11-DHC challenge, 30 min after challenge
Method: Male CD-1 (18-22 g) mice (Charles River, Madison, Wis.) were group housed and allowed free access to food and water. Mice are brought into a quiet procedure room for acclimation the night before the study. Animals are dosed with vehicle or compound at various times (pretreatment period) before being challenged with 11-dehydrocorticosterone (Steraloids Inc., Newport, R.I.). Thirty minutes after challenge, the mice are euthanized with CO2 and blood samples (EDTA) are obtained by cardiac puncture and immediately placed on ice. Blood samples were then spun, the plasma was removed, and the samples frozen until further analysis was performed. Corticosterone levels were obtained by ELISA (American Laboratory Prod., Co., Windham, N.H.) or HPLC/mass spectroscopy.

T1 sequence (P28845 24-287): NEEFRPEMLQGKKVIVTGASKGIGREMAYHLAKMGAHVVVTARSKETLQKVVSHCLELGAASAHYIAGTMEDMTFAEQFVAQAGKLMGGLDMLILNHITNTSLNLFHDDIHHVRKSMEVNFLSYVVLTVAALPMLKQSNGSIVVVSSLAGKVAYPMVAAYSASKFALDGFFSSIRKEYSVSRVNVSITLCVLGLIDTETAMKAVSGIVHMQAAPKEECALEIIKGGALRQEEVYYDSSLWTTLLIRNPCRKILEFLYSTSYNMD

CC(C(=O)NC1C2CC3CC(C2)CC1C3)N1CCC(O)CC1 (stereo not shown) [Compound C, N-2-Adamantyl-2-(4-hydroxypiperidin-1-yl)propanamide]
IC50 [1]: 34 nM
% HbA1c (ob/ob mice; 30 mpk twice daily): 7.4 ± 0.7%
Plasma glucose (ob/ob mice; 30 mpk twice daily): 227 ± 17 mg/dL
Plasma triglycerides (ob/ob mice; 30 mpk twice daily): 288 ± 26 mg/dL
% HbA1c (ob/ob mice; 100 mpk twice daily): 5.7 ± 0.3%
Plasma glucose (ob/ob mice; 100 mpk twice daily): 186 ± 18 mg/dL
Plasma triglycerides (ob/ob mice; 100 mpk twice daily): 323 ± 34 mg/dL
IC50 (human 11-β-HSD-2): > 10 µM
Plasma corticosterone level (male CD-1 mice; pretreatment period 0.5 hours): 203 ± 19
Plasma corticosterone level (male CD-1 mice; pretreatment period 5 hours): 382 ± 40
